According to patent US20080051466A1, “Isoalpha acid based protein kinase modulation cancer treatment” (Metaproteomics, LLC, priority 2006, published 2008):

Experiments:
Assay in all cases: KinaseProfiler Assay
Type in all cases: biochemical
HIPK3 = HIPK3 (Homo sapiens, UniProt Q9H422); conditions: read-out: HIPK3, % of Control
Ros = Ros (Homo sapiens, UniProt P08922); conditions: read-out: Ros, % of Control
TrkA = TrkA (Homo sapiens, UniProt P04629); conditions: read-out: TrkA, % of Control
CDK9/cyclin T1 = CDK9/cyclin T1 (Homo sapiens, UniProt P50750); conditions: read-out: CDK9/cyclin T1, % of Control
FGFR2 = FGFR2 (Homo sapiens, UniProt P21802); conditions: read-out: FGFR2, % of Control
FGFR2, sequence (P21802 22-821): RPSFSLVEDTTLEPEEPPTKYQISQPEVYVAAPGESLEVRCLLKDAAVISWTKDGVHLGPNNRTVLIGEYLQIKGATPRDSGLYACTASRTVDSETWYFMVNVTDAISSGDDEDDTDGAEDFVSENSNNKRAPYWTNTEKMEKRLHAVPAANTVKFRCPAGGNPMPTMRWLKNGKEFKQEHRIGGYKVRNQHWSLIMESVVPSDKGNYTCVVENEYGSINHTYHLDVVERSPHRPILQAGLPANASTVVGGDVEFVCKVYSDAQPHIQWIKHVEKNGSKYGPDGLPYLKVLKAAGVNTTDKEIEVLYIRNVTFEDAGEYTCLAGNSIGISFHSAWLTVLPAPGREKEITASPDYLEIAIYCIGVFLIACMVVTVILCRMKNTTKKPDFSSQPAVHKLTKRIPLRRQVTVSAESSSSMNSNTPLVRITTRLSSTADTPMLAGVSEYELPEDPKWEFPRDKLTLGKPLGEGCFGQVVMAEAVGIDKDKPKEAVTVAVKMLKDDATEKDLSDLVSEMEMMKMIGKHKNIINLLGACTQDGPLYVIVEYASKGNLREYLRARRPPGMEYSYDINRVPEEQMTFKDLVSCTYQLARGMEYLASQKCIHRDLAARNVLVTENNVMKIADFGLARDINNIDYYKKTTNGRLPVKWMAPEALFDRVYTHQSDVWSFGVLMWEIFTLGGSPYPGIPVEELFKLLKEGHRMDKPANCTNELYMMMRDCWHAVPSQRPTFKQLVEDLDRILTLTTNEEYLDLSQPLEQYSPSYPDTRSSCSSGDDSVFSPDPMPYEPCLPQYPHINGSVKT

PAK3 = PAK3 (Homo sapiens, UniProt O75914); conditions: read-out: PAK3, % of Control
PAK3, sequence (O75914 whole entry): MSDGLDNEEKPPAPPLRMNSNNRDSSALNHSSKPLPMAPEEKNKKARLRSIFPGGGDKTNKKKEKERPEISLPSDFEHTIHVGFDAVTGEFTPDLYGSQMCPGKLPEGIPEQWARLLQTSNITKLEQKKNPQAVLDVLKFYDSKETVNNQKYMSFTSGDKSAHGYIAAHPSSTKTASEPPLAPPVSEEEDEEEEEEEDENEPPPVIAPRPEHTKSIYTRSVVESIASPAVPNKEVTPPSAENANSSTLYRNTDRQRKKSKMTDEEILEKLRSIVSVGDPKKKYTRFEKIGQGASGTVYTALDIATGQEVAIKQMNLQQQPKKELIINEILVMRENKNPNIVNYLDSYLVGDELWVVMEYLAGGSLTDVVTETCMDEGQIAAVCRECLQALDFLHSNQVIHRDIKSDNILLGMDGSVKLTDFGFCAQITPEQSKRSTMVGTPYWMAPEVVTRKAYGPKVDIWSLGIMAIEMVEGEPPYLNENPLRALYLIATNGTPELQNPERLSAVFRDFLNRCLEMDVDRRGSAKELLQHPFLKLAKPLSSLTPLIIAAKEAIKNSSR

EphB1 = target: T1, EphB1 (Homo sapiens, UniProt P54762); conditions: read-out: EphB1, % of Control
T1 sequence (P54762 18-984): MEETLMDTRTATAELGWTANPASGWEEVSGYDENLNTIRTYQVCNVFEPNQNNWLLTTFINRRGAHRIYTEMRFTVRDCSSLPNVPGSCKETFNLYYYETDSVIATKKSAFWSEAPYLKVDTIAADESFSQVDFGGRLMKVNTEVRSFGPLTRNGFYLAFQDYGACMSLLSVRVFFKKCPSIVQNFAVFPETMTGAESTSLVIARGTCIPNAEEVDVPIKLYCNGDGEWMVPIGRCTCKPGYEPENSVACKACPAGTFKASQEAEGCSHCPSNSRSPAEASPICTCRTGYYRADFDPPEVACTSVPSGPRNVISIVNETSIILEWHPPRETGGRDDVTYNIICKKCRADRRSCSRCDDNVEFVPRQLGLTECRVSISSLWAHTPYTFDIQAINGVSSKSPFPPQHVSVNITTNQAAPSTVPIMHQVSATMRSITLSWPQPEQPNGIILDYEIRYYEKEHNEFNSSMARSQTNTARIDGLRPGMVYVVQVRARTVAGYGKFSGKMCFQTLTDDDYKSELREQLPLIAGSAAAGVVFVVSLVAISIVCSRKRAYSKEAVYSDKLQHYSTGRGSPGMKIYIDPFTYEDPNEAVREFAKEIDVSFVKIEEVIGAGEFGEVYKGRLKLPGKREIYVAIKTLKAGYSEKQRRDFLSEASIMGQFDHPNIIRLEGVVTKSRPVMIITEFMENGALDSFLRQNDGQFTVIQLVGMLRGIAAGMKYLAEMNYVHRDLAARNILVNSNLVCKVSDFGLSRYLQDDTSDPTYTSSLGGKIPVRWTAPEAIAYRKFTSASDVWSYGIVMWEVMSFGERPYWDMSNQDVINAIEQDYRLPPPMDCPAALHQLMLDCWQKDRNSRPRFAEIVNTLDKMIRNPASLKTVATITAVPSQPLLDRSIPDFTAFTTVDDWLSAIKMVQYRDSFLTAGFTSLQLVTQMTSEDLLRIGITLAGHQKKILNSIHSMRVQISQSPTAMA

CaMKI = CaMKI (Homo sapiens, UniProt Q14012); conditions: read-out: CaMKI, % of Control
PKBγ = PKBγ (Homo sapiens, UniProt Q9Y243); conditions: read-out: PKBγ, % of Control
PKBγ, sequence (Q9Y243 whole entry): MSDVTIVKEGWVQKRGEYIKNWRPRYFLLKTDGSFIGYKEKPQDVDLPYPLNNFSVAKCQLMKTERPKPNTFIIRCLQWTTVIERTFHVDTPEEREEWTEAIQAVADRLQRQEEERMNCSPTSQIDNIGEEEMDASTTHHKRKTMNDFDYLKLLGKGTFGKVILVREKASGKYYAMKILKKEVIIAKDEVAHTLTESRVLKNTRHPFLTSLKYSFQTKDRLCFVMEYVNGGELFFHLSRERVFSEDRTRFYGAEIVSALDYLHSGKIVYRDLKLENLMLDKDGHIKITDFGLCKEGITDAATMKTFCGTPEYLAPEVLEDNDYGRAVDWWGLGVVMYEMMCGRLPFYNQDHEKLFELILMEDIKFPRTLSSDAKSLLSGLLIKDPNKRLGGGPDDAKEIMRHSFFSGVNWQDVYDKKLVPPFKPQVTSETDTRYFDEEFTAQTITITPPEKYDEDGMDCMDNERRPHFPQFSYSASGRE

MSK2 = MSK2 (Homo sapiens, UniProt O75676); conditions: read-out: MSK2, % of Control

TrkA, sequence (P04629 33-796): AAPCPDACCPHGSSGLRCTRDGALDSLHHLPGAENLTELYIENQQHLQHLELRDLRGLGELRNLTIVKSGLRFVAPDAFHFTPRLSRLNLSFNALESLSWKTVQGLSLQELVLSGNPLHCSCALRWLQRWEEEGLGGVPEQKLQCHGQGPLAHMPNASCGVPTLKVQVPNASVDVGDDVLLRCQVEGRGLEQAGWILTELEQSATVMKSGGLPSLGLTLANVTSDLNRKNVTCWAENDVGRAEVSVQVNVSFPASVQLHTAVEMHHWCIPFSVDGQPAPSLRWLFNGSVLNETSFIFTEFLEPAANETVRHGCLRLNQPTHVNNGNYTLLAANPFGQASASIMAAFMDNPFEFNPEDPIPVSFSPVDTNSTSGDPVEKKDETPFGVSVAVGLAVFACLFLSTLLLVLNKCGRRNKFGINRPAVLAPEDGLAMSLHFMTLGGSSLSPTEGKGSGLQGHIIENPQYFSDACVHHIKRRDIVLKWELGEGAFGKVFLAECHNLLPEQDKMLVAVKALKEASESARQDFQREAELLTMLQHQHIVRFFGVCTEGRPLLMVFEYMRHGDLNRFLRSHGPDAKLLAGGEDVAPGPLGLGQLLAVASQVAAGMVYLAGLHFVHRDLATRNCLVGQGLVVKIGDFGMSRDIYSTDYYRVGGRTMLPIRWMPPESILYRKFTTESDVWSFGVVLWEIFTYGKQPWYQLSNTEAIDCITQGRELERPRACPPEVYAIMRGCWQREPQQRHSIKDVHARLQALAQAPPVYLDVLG
Ros, sequence (P08922 28-2347): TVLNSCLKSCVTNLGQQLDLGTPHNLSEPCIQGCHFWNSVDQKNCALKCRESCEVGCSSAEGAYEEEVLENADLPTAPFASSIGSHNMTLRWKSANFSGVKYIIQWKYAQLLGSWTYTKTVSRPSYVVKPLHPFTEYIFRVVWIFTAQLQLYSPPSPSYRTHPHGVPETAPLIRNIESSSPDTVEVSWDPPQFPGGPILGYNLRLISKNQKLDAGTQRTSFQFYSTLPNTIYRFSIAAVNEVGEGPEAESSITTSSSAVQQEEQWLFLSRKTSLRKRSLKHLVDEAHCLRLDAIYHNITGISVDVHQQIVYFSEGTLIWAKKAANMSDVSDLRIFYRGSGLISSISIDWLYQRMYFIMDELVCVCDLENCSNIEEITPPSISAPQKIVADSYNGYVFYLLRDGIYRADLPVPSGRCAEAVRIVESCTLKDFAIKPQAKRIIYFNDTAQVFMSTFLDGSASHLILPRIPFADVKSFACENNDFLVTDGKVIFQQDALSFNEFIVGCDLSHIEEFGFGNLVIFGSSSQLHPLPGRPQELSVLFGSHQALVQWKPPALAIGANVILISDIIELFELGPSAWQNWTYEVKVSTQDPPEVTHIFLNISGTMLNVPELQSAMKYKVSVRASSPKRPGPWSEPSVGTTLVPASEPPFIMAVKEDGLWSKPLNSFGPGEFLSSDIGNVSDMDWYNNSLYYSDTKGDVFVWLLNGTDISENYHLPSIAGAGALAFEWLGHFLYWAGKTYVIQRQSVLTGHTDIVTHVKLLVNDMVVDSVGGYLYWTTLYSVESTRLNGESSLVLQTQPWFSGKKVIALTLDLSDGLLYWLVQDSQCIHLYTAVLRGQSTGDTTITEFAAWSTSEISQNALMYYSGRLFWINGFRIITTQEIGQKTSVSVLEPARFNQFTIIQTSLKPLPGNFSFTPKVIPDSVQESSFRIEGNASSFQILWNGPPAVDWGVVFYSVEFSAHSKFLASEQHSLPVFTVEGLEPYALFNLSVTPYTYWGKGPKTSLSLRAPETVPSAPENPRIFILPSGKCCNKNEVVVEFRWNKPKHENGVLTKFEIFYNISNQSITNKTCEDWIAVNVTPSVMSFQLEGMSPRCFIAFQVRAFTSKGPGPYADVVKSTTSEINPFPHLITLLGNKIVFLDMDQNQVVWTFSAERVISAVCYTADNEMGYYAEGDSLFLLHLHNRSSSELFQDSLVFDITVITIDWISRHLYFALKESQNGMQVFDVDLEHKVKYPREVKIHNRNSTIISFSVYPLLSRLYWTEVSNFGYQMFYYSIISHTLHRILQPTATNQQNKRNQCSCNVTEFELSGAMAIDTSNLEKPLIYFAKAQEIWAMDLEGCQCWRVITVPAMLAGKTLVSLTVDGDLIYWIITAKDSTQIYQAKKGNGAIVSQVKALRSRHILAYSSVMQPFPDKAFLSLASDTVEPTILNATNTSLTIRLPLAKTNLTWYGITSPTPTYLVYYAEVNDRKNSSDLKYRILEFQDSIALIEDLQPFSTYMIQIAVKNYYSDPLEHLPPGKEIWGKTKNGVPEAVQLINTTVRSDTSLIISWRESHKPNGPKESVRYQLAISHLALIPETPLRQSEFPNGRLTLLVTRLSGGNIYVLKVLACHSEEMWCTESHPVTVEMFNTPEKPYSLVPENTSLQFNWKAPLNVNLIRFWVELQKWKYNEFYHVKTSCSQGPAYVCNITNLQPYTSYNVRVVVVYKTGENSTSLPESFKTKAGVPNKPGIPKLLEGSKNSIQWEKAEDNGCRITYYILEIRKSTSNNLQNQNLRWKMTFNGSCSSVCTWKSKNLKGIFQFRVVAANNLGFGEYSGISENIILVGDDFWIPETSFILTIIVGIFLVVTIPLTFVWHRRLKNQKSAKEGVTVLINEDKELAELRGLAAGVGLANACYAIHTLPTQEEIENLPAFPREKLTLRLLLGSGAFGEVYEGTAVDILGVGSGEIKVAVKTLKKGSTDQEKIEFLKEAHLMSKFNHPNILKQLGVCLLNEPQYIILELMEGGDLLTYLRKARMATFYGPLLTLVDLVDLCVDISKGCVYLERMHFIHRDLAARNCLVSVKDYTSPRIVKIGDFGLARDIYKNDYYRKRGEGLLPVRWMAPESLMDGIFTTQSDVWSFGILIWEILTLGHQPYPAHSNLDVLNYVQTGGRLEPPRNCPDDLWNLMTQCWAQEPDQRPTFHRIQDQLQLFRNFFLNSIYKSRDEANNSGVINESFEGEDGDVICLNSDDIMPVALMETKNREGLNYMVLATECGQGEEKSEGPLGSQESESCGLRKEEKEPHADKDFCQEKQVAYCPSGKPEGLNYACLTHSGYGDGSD

Which remaining activity at 1 µg/mL (HIPK3; 1 ug/ml) does the source give for COc1cc(O)c(CC=C(C)C)c(O)c1C(=O)/C=C/c1ccc(O)cc1 [Xanthohumol, xanthohumol] here?
Its remaining activity at 1 µg/mL is 106%.

What about the remaining activity at 5 µg/mL (HIPK3; 5 ug/ml) of the same molecule?
Its remaining activity at 5 µg/mL is 102%.

And the remaining activity at 50 µg/mL (HIPK3; 50 ug/ml)?
The remaining activity at 50 µg/mL was 59%.

What about the remaining activity at 1 µg/mL (Ros; 1 ug/ml) of the same molecule?
Its remaining activity at 1 µg/mL is 101%.

What about the remaining activity at 5 µg/mL (Ros; 5 ug/ml) of the same molecule?
The remaining activity at 5 µg/mL was 99%.

And the remaining activity at 25 µg/mL (Ros; 25 ug/ml)?
Its remaining activity at 25 µg/mL is 85%.

What about the remaining activity at 50 µg/mL (Ros; 50 ug/ml) of the same molecule?
The remaining activity at 50 µg/mL was 94%.

What about the remaining activity at 1 µg/mL (TrkA; 1 ug/ml) of the same molecule?
Its remaining activity at 1 µg/mL is 36%.

What about the remaining activity at 5 µg/mL (TrkA; 5 ug/ml) of the same molecule?
Its remaining activity at 5 µg/mL is 19%.

And the remaining activity at 25 µg/mL (TrkA; 25 ug/ml)?
Its remaining activity at 25 µg/mL is 8%.

What about the remaining activity at 50 µg/mL (TrkA; 50 ug/ml) of the same molecule?
The remaining activity at 50 µg/mL was 3%.

And the remaining activity at 1 µg/mL (CDK9/cyclin T1; 1 ug/ml)?
The remaining activity at 1 µg/mL was 110%.

What about the remaining activity at 5 µg/mL (CDK9/cyclin T1; 5 ug/ml) of the same molecule?
The remaining activity at 5 µg/mL was 107%.

And the remaining activity at 25 µg/mL (CDK9/cyclin T1; 25 ug/ml)?
Its remaining activity at 25 µg/mL is 45%.

What about the remaining activity at 50 µg/mL (CDK9/cyclin T1; 50 ug/ml) of the same molecule?
The remaining activity at 50 µg/mL was 31%.

What about the remaining activity at 1 µg/mL (FGFR2; 1 ug/ml) of the same molecule?
Its remaining activity at 1 µg/mL is 116%.

What about the remaining activity at 5 µg/mL (FGFR2; 5 ug/ml) of the same molecule?
The remaining activity at 5 µg/mL was 89%.

What about the remaining activity at 25 µg/mL (FGFR2; 25 ug/ml) of the same molecule?
The remaining activity at 25 µg/mL was 36%.

What about the remaining activity at 1 µg/mL (PAK3; 1 ug/ml) of the same molecule?
Its remaining activity at 1 µg/mL is 21%.

And the remaining activity at 5 µg/mL (PAK3; 5 ug/ml)?
Its remaining activity at 5 µg/mL is 18%.

And the remaining activity at 25 µg/mL (PAK3; 25 ug/ml)?
Its remaining activity at 25 µg/mL is 8%.

What about the remaining activity at 1 µg/mL (EphB1; 1 ug/ml) of the same molecule?
Its remaining activity at 1 µg/mL is 92%.

And the remaining activity at 25 µg/mL (EphB1; 25 ug/ml)?
Its remaining activity at 25 µg/mL is 175%.

What about the remaining activity at 50 µg/mL (EphB1; 50 ug/ml) of the same molecule?
Its remaining activity at 50 µg/mL is 161%.

And the remaining activity at 1 µg/mL (CaMKI; 1 ug/ml)?
The remaining activity at 1 µg/mL was 142%.

What about the remaining activity at 25 µg/mL (CaMKI; 25 ug/ml) of the same molecule?
The remaining activity at 25 µg/mL was 3%.

What about the remaining activity at 1 µg/mL (PKBγ; 1 ug/ml) of the same molecule?
The remaining activity at 1 µg/mL was 104%.

And the remaining activity at 5 µg/mL (PKBγ; 5 ug/ml)?
Its remaining activity at 5 µg/mL is 104%.

And the remaining activity at 25 µg/mL (PKBγ; 25 ug/ml)?
The remaining activity at 25 µg/mL was 12%.

What about the remaining activity at 1 µg/mL (MSK2; 1 ug/ml) of the same molecule?
Its remaining activity at 1 µg/mL is 126%.

And the remaining activity at 5 µg/mL (MSK2; 5 ug/ml)?
The remaining activity at 5 µg/mL was 61%.

What about the remaining activity at 25 µg/mL (MSK2; 25 ug/ml) of the same molecule?
Its remaining activity at 25 µg/mL is 8%.

What about the remaining activity at 50 µg/mL (MSK2; 50 ug/ml) of the same molecule?
Its remaining activity at 50 µg/mL is 19%.
